Our source for the TGI values is PubChem BioAssay (NCI).

Structures are written as SMILES.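 Test compounds were applied to cells in 96-well plates for 48 hours at 5 doses. TGI is the concentration that stops growth completely.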 Where only a bound is given, the exact number is not on record here.

Test systems include CAKI-1 renal; CCRF-CEM leukemia; DU-145 prostate; HCT-15 colon; HOP-92 NSCLC; IGROV1 ovarian; MDA-MB-435; MOLT-4 leukemia; NCI-H522 lung; OVCAR-4 ovarian; OVCAR-8 ovarian; SF-295 CNS; SK-MEL-2 melanoma; SK-MEL-5 melanoma; SK-OV-3 ovarian; SNB-19 CNS; SR leukemia; T-47D breast; UO-31 renal.
Assay in all cases: NCI anticancer screen, dose series, 48 h

In the case of `NC(=O)NO`, the TGI in the experiment with CAKI-1 renal was 1720 µM; in the experiment with CCRF-CEM leukemia it was 1060 µM; with DU-145 prostate it was greater than 2500 µM; in the experiment on HCT-15 colon it was 2360 µM; with HOP-92 NSCLC, 2330 µM; in the experiment on IGROV1 ovarian, greater than 2020 µM. In addition, the TGI was greater than 2500 µM with MDA-MB-435; 2100 µM in the experiment with MOLT-4 leukemia; 2270 µM in the experiment with NCI-H522 lung; greater than 2500 µM in the experiment on OVCAR-4 ovarian; greater than 2460 µM with OVCAR-8 ovarian; 1950 µM with SF-295 CNS. In addition, the TGI in the experiment with SK-MEL-2 melanoma was greater than 2450 µM; in the experiment on SK-MEL-5 melanoma, 2230 µM; with SK-OV-3 ovarian, greater than 2500 µM; in the experiment on SNB-19 CNS, greater than 2340 µM; in the experiment with SR leukemia, 1620 µM; in the experiment with T-47D breast, greater than 2500 µM. Also, the TGI in the experiment with UO-31 renal was 1870 µM.

As to `CCOC(=O)c1sc2nc(SC)nc3c2c1NCN3c1ccc2c(c1)OCCCO2`, the TGI in the experiment on CAKI-1 renal, with CCRF-CEM leukemia, with DU-145 prostate, in the experiment on HCT-15 colon, with HOP-92 NSCLC and in the experiment with IGROV1 ovarian was greater than 100 µM in each case. The TGI in the experiment with MDA-MB-435 was greater than 100 µM; with MOLT-4 leukemia, greater than 100 µM; in the experiment on NCI-H522 lung, greater than 100 µM; in the experiment on OVCAR-4 ovarian it was greater than 100 µM; with OVCAR-8 ovarian, greater than 100 µM; with SF-295 CNS, 5.1 µM. Also, the TGI was greater than 100 µM with SK-MEL-2 melanoma; greater than 100 µM with SK-MEL-5 melanoma; 75.7 µM in the experiment on SK-OV-3 ovarian; greater than 100 µM in the experiment on SNB-19 CNS; greater than 100 µM in the experiment with SR leukemia; greater than 100 µM in the experiment with T-47D breast. The compound also registered a TGI in the experiment on UO-31 renal greater than 100 µM.

For the compound `CC(=O)O[C@@H]1[C@H]2[C@@H](OC(=O)c3ccccc3)[C@@H](C)C[C@]2(O)[C@H](OC(C)=O)[C@@]2(C)[C@@H]3CC(C)(C)C(=O)[C@]3(OC(C)=O)C[C@@]12C`, the TGI in the experiment on CAKI-1 renal, in the experiment on CCRF-CEM leukemia, in the experiment on DU-145 prostate, in the experiment on HCT-15 colon, with HOP-92 NSCLC and in the experiment on IGROV1 ovarian was greater than 25 µM in each case. The TGI with MDA-MB-435, in the experiment with MOLT-4 leukemia, with NCI-H522 lung, with OVCAR-4 ovarian, in the experiment with OVCAR-8 ovarian and in the experiment with SF-295 CNS was greater than 25 µM each time. In addition, the TGI in the experiment with SK-MEL-2 melanoma, in the experiment with SK-MEL-5 melanoma, with SK-OV-3 ovarian, in the experiment on SNB-19 CNS, with SR leukemia and with T-47D breast was greater than 25 µM throughout. The compound further displayed a TGI in the experiment on UO-31 renal greater than 25 µM.

On to `CCOP(=O)(OCC)/C(C#N)=C/c1ccc(-c2ccc(F)cc2F)o1`, for which the TGI in the experiment on CAKI-1 renal was 28.6 µM; in the experiment on CCRF-CEM leukemia, 38.7 µM; in the experiment with DU-145 prostate it was 42.5 µM; with HCT-15 colon, 28.7 µM; in the experiment with HOP-92 NSCLC, 35.7 µM; in the experiment on IGROV1 ovarian, 34.6 µM. Further, the TGI is 27 µM with MDA-MB-435; 28.4 µM with MOLT-4 leukemia; 37 µM in the experiment on NCI-H522 lung; 33.4 µM in the experiment on OVCAR-4 ovarian; 33.2 µM in the experiment with OVCAR-8 ovarian; 30.8 µM in the experiment on SF-295 CNS. Further, the TGI with SK-MEL-2 melanoma stood at 44 µM; in the experiment on SK-MEL-5 melanoma, 35.7 µM; with SK-OV-3 ovarian, 26.9 µM; in the experiment with SNB-19 CNS, 33.3 µM; in the experiment with SR leukemia it was 33.2 µM; in the experiment with T-47D breast, 8.35 µM. The TGI in the experiment on UO-31 renal turned out to be 26.3 µM.

Consider `COc1cc(/C=C/C(=O)OC2C(O)C3CC(OC(=O)c4cc(OC)c(OC)c(OC)c4)CC2N3C)cc(OC)c1OC` (stereo unspecified), for which the TGI in the experiment on CAKI-1 renal is greater than 50 µM; in the experiment on CCRF-CEM leukemia, greater than 50 µM; with DU-145 prostate, greater than 50 µM; with HCT-15 colon, greater than 50 µM; in the experiment with HOP-92 NSCLC, greater than 50 µM; in the experiment with IGROV1 ovarian, 39.8 µM. Also, the TGI in the experiment with MDA-MB-435, with MOLT-4 leukemia, in the experiment on NCI-H522 lung, in the experiment with OVCAR-4 ovarian, in the experiment with OVCAR-8 ovarian and in the experiment on SF-295 CNS was greater than 50 µM each time. The TGI with SK-MEL-2 melanoma is greater than 50 µM; in the experiment with SK-MEL-5 melanoma, greater than 50 µM; in the experiment on SK-OV-3 ovarian, greater than 50 µM; with SNB-19 CNS, 39.9 µM; in the experiment with SR leukemia, 33.3 µM; with T-47D breast, 43.7 µM. The TGI in the experiment on UO-31 renal was greater than 50 µM.

Turning to `COc1cc(C[C@H]2C(=O)OC[C@@H]2Cc2ccc(OC)c(OC)c2)cc(OC)c1`, the TGI in the experiment on CAKI-1 renal, in the experiment with CCRF-CEM leukemia, in the experiment with DU-145 prostate, with HCT-15 colon, in the experiment on HOP-92 NSCLC and with IGROV1 ovarian was greater than 100 µM each time. The TGI in the experiment on MDA-MB-435, with MOLT-4 leukemia, with NCI-H522 lung, in the experiment on OVCAR-4 ovarian, with OVCAR-8 ovarian and with SF-295 CNS was greater than 100 µM in each case. For the same compound, the TGI is greater than 100 µM in the experiment with SK-MEL-2 melanoma; 54.5 µM with SK-MEL-5 melanoma; greater than 100 µM in the experiment on SK-OV-3 ovarian; greater than 100 µM in the experiment with SNB-19 CNS; greater than 100 µM in the experiment with SR leukemia; greater than 100 µM in the experiment on T-47D breast. This compound yielded a TGI with UO-31 renal greater than 100 µM.

Consider `COc1ccc(C2C3CCc4ccccc4C3=NN2S(=O)(=O)c2ccc(Cl)cc2)cc1` (stereo unspecified), for which the TGI was greater than 100 µM in the experiment with CAKI-1 renal; greater than 100 µM in the experiment with CCRF-CEM leukemia; greater than 100 µM with DU-145 prostate; 4.52 µM in the experiment with HCT-15 colon; greater than 100 µM with HOP-92 NSCLC; 52.9 µM with IGROV1 ovarian. In addition, the TGI is 4.62 µM in the experiment on MDA-MB-435; greater than 100 µM with MOLT-4 leukemia; 37.6 µM in the experiment on NCI-H522 lung; greater than 100 µM in the experiment with OVCAR-4 ovarian; greater than 100 µM with OVCAR-8 ovarian; 50.9 µM in the experiment on SF-295 CNS. Further, the TGI with SK-MEL-2 melanoma was greater than 100 µM; with SK-MEL-5 melanoma, greater than 100 µM; in the experiment with SK-OV-3 ovarian, 16 µM; with SNB-19 CNS it was greater than 100 µM; in the experiment on SR leukemia it was 25.4 µM; with T-47D breast it was greater than 100 µM. Further, the TGI in the experiment with UO-31 renal was greater than 100 µM.

Regarding `C(=C\c1nccs1)/c1cccc(/C=C/c2nccs2)n1`, the TGI in the experiment on CAKI-1 renal, in the experiment with CCRF-CEM leukemia, in the experiment on DU-145 prostate, in the experiment with HCT-15 colon, in the experiment with HOP-92 NSCLC and in the experiment with IGROV1 ovarian was greater than 50 µM in each case. The TGI in the experiment with MDA-MB-435, with MOLT-4 leukemia, in the experiment on NCI-H522 lung, with OVCAR-4 ovarian, with OVCAR-8 ovarian and with SF-295 CNS was greater than 50 µM in each case. Also, the TGI in the experiment with SK-MEL-2 melanoma, in the experiment with SK-MEL-5 melanoma, in the experiment with SK-OV-3 ovarian, in the experiment on SNB-19 CNS, with SR leukemia and in the experiment on T-47D breast was greater than 50 µM each time. For the same compound, the TGI in the experiment with UO-31 renal is greater than 50 µM.

Consider `C=CCOC1=C(OCC=C)C(C2COC(C)(C)O2)OC1=O` (stereo unspecified), for which the TGI with CAKI-1 renal was 34.9 µM; with CCRF-CEM leukemia, greater than 100 µM; in the experiment on DU-145 prostate, greater than 100 µM; in the experiment with HCT-15 colon, greater than 100 µM; in the experiment on HOP-92 NSCLC, 83.3 µM; with IGROV1 ovarian, greater than 100 µM. For the same compound, the TGI with MDA-MB-435 was greater than 100 µM; in the experiment with MOLT-4 leukemia, greater than 100 µM; in the experiment with NCI-H522 lung it was 45.2 µM; in the experiment with OVCAR-4 ovarian, greater than 100 µM; with OVCAR-8 ovarian it was greater than 100 µM; with SF-295 CNS, greater than 100 µM. The TGI in the experiment with SK-MEL-2 melanoma, with SK-MEL-5 melanoma, in the experiment with SK-OV-3 ovarian, in the experiment on SNB-19 CNS, in the experiment on SR leukemia and in the experiment with T-47D breast was greater than 100 µM throughout. Further, the TGI with UO-31 renal was greater than 100 µM.
